The NIST ThermoML archive (doi:10.1016/j.fluid.2016.11.010)

How the values were obtained:
[1] = for vapor or sublimation pressure: Liquid, Transpiration method
[2] = Molar enthalpy of transition or fusion; conditions: Crystal; DSC

Cc1ccccc1-n1ccnc1 [1-(o-tolyl)-1H-imidazole]
[1]
Conditions	vapor or sublimation pressure [kPa]
313.3 K	0.00112
318.2 K	0.00165
323.2 K	0.00266
328.2 K	0.00389
333.2 K	0.00587
338.1 K	0.00828
343.1 K	0.01155
348.1 K	0.01711
353.1 K	0.02295
358 K	0.03338
363 K	0.04638

c1ccc(-n2ccnc2)cc1 [1-phenylimidazole]
[1]
Conditions	vapor or sublimation pressure [kPa]
298.7 K	0.00041
308.6 K	0.00105
313.5 K	0.00158
318.4 K	0.00254
319.1 K	0.00269
323.5 K	0.00393
328.5 K	0.00594
333.7 K	0.00902
338.4 K	0.01334
343.2 K	0.01799
348.2 K	0.02552
353.1 K	0.03567

Brc1ccccc1-n1ccnc1 [2-bromo-phenyl-1H-imidazole]
[1]
Conditions	vapor or sublimation pressure [kPa]
343.2 K	0.00369
348.2 K	0.00534
353.2 K	0.00754
358.1 K	0.01128
363.1 K	0.01573
368 K	0.0218
374 K	0.03122

Fc1ccccc1-n1ccnc1 [2-fluoro-phenyl-1H-imidazole]
[1]
Conditions	vapor or sublimation pressure [kPa]
323.2 K	0.0041
328.2 K	0.00615
333.2 K	0.00892
338.1 K	0.01364
343.1 K	0.01948
348.1 K	0.02761
353.1 K	0.03781
358.1 K	0.05311
363 K	0.0745
367.9 K	0.09597

COc1ccccc1-n1ccnc1 [2-methoxy-phenyl-1H-imidazole]
[1]
Conditions	vapor or sublimation pressure [kPa]
333.2 K	0.00084
338.3 K	0.00128
343.1 K	0.00192
348.1 K	0.00293
353 K	0.00409
358 K	0.00591
362.9 K	0.00864
367.9 K	0.01198
374.2 K	0.01855

Brc1ccc(-n2ccnc2)cc1 [4-bromo-phenyl-1H-imidazole]
[1]
Conditions	vapor or sublimation pressure [kPa]
343.3 K	0.00037
348.1 K	0.00065
353 K	0.00103
358.2 K	0.00174
363.2 K	0.00273
368.2 K	0.00467
374.1 K	0.00773

Conditions	Normal melting temperature [°C]
[1], Crystal, DTA	120.1

Conditions	Molar enthalpy of transition or fusion [kcal/mol]
[2]	6.84

Fc1ccc(-n2ccnc2)cc1 [4-fluoro-phenyl-1H-imidazole]
[1]
Conditions	vapor or sublimation pressure [kPa]
313 K	0.00108
318.4 K	0.00166
323.3 K	0.00268
328.2 K	0.00401
333.2 K	0.00563
335.7 K	0.00702
338.2 K	0.00834
340.7 K	0.01004
343.2 K	0.01191
345.6 K	0.01481
348.2 K	0.01727
353.1 K	0.02449
358.2 K	0.03573
363.2 K	0.04969
368.1 K	0.06685
373.1 K	0.09256

COc1ccc(-n2ccnc2)cc1 [4-methoxy-phenyl-1H-imidazole]
[1]
Conditions	vapor or sublimation pressure [kPa]
333.4 K	0.00061
338.2 K	0.00094
343.3 K	0.00147
348.2 K	0.00215
353.3 K	0.00328
358.3 K	0.00469
363.3 K	0.00695
368.2 K	0.00969
373.2 K	0.01433

Cc1ccc(-n2ccnc2)cc1 [4-methyl-phenyl-1H-imidazole]
[1]
Conditions	vapor or sublimation pressure [kPa]
328.3 K	0.00266
333 K	0.00399
338.1 K	0.00603
340.8 K	0.00739
345.7 K	0.01103
350.7 K	0.01582
355.7 K	0.02204
360.7 K	0.0313
365.6 K	0.04264
370.6 K	0.0608
375.3 K	0.07866
